Square brackets hold non-standard residues; d marks the D form. Peptide text beside a SMILES is read from it. Ala(1H-tetrazol-5-yl) = N[C@@H](Cc1nnn[nH]1)C(=O)O
What was measured:
[1] = Peptide stability test, phosphate buffer (pH 7.0), 40° C. storage, HPLC remaining rate; assay type: physicochemical; conditions: Table 4; 100 μM in phosphate buffer pH 7.0; HPLC conditions 1
Experimental: Peptides 1 and 3 to 5 synthesized in Example 2 were weighed and dissolved in phosphate buffer (pH 7.0) to prepare 1.0 mM peptide solutions. The 1.0 mM peptide solutions were then diluted with phosphate buffer to 100 μM. After filtering with Chromatdisk (product of Merck Millipore, Millex-GV, 0.22 μm), each filtrate was dispensed into an LC vial (Waters Deactivated […] prepared peptide solutions were incubated for one month or 2 months in a 40° C. thermostatic bath to obtain stored samples. A simultaneously prepared sample among the peptide solutions that was not stored was used as a standard sample (initial sample). The standard sample and the stored samples were stored at -30° C. until sample analysis. Using the total weight of the aqueous peptide solution and storage vessel as the specimen weight, measurements were recorded as the specimen weights before storage and the specimen weights after storage under different storage conditions. The empty weight of the storage vessel was also measured, and the moisture permeability was determined by the following formula. After stirring the standard sample and the stored samples with a vortex mixer, each peptide solution was transferred to an HPLC vial (Deactivated Qsert vial by Waters Co.). Reverse-phase HPLC (HPLC system: Prominence by Shimadzu Corp.) was conducted under the conditions shown in Table 3 below for analysis of the peptide solutions, and chromatograms were obtained. Guard column: XSelect CSH C18 by Waters Co., 5 μm, 4.6×20 mm Guard Cartridge Detection wavelength: 220 nm Mobile phase A: 0.1% formic acid aqueous solution Mobile phase B: 0.1% acetonitrile formate solution Measuring time: 30 minutes Measuring sample injection rate: 50 μL Flow rate: 1.0 mL/min Sample cooler: 4° C. Column temperature: 40° C. Mobile phase delivery: The mixing ratio of mobile phase A and mobile phase B was varied as shown in Table 3 for linear concentration gradient control. The peak area value for the peptide in the chromatogram was calculated, and the remaining rate (remaining rate before correction for water) was calculated using formula (2). The remaining rate after correction for water was also calculated from the remaining rate before correction for water using formula (3), taking into account the moisture permeability of the vessel. Peptides 10 and 11 synthesized in Example 2 were weighed and dissolved in phosphate buffer (pH 7.0) to prepare 1.0 mM peptide solutions. Each solution was filtered with a Chromatdisk (product of Merck Millipore. Millex-GV, 0.22 μm). Each filtrate was diluted to 100 μM with phosphate buffer (pH 7.0) and dispensed into a tube (Protein LoBind Tube by Eppendorf Co.). The prepared peptide solutions were incubated for one month or 2 months in a 40° C. thermostatic bath to obtain stored samples. A simultaneously prepared sample among the peptide solutions that was not stored was used as a standard sample (initial sample). The standard sample and the stored samples were stored at -30° C. until sample analysis. The remaining rate after correction for water for each peptide among the stored samples was measured in the same manner as Example 4, and the results are shown in Table 8.

[2] = Peptide stability test, Tris buffer (pH 7.0), 60° C. storage, HPLC remaining rate; assay type: physicochemical; conditions: Table 6; 100 μM in Tris buffer pH 7.0; HPLC conditions 2
Summary of the method: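 Peptides at 100 μM in Tris buffer (pH 7.0) stored 1 or 2 weeks at 60° C.; unstored sample kept at −30° C. as initial reference. Remaining peptide quantified by reversed-phase HPLC at 220 nm (formic acid/acetonitrile gradient, 40° C. column), as water-corrected remaining rate.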

SMILES	remaining rate after correction for water, 40° C., 1 month preservation [1] [%]	remaining rate after correction for water, 40° C., 2 months preservation [1] [%]	remaining rate after correction for water, 60° C., 1 week preservation [2] [%]	remaining rate after correction for water, 60° C., 2 weeks preservation [2] [%]
CC[C@H](C)[C@H](NC(=O)CNC(=O)[C@H](CC(=O)O)NC(=O)[C@H](CO)NC(=O)[C@@H](N)Cc1cnc[nH]1)C(=O)N[C@@H](Cc1ccccc1)C(=O)N[C@H](C(=O)N[C@@H](CC(=O)O)C(=O)N[C@@H](CO)C(=O)N[C@@H](Cc1ccc(O)cc1)C(=O)N[C@@H](CO)C(=O)N[C@@H](CCCNC(=N)N)C(=O)N[C@@H](Cc1ccc(O)cc1)C(=O)N[C@@H](CCCNC(=N)N)C(=O)N[C@@H](CCCCN)C(=O)N[C@@H](CCC(N)=O)C(=O)N[C@@H](CCSC)C(=O)N[C@@H](C)C(=O)N[C@H](C(=O)N[C@@H](CCCCN)C(=O)N[C@@H](CCCCN)C(=O)N[C@@H](Cc1ccc(O)cc1)C(=O)N[C@@H](CC(C)C)C(=O)N[C@@H](C)C(=O)N[C@@H](C)C(=O)N[C@H](C(=O)N[C@@H](CC(C)C)C(N)=O)C(C)C)C(C)C)[C@@H](C)O [Peptide 1, reference compound]	37.4	21.3		
CC[C@H](C)[C@H](NC(=O)CNC(=O)[C@H](Cc1nnn[nH]1)NC(=O)[C@H](CO)NC(=O)[C@H](Cc1c[nH]cn1)NC(C)=O)C(=O)N[C@@H](Cc1ccccc1)C(=O)N[C@H](C(=O)N[C@@H](Cc1nnn[nH]1)C(=O)N[C@@H](CO)C(=O)N[C@@H](Cc1ccc(O)cc1)C(=O)N[C@@H](CO)C(=O)N[C@@H](CCCNC(=N)N)C(=O)N[C@@H](Cc1ccc(O)cc1)C(=O)N[C@@H](CCCNC(=N)N)C(=O)N[C@@H](CCCCN)C(=O)N[C@@H](CCC(N)=O)C(=O)N[C@@H](CC(C)C)C(=O)N[C@@H](C)C(=O)N[C@H](C(=O)N[C@@H](CCCCN)C(=O)N[C@@H](CCCCN)C(=O)N[C@@H](Cc1ccc(O)cc1)C(=O)N[C@@H](CC(C)C)C(=O)N[C@@H](C)C(=O)N[C@@H](C)C(=O)N[C@H](C(=O)N[C@@H](CC(C)C)C(N)=O)C(C)C)C(C)C)[C@@H](C)O [Peptide 9] (Ac-HS[Ala(1H-tetrazol-5-yl)]GIFT[Ala(1H-tetrazol-5-yl)]SYSRYRKQLAVKKYLAAVL-NH2)			98.4	92.8

Reference: US20220202905A1, “COMPOSITION FOR PREVENTING OR TREATING NEUROTROPHIC KERATITIS WHICH CONTAINS PACAP PEPTIDE OR STABILIZED PACAP PEPTIDE” (SENJU PHARMACEUTICAL CO., LTD., priority 2019, published 2022)
